Assays:
[1] = tested on: AGS (ATCC-CRL-1739) cells; assay: Cell viability assay, G12D (AGS); type: cell-based, human; conditions: Homo sapiens, KRAS cell viability, 72 hrs, Cell Counting Kit-8
Method in brief: (§1)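 72-hr compound treatment, 0.5% DMSO final; NCI-H358 seeded 5,000 cells/well, AGS and SW620 2,000 cells/well. Endpoint: CCK-8, 2-hr development, OD450 minus OD650.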

SW620 (ATCC-CCL-227) = assay: Cell viability assay, G12V (SW620); type: cell-based, human; conditions: Homo sapiens, SW-620; KRAS cell viability, SW620, 72 hrs, Cell Counting Kit-8
Method in brief: as §1

KRAS G12C-BRAF complex = KRAS G12C-BRAF complex (Homo sapiens (Human), UniProt P01116+P62937, G12C); assay: KRAS-BRAF with CYPA (500 nM) interaction assay (TR-FRET), G12C; type: biochemical
[2] = biological target: KRAS G12D binding to BRAF (Homo sapiens (Human), UniProt P01116+P62937, G12D); assay: KRAS-BRAF with CYPA (500 nM) interaction assay (TR-FRET), G12D; type: biochemical
[3] = biological target: KRAS G12V binding to BRAF (Homo sapiens (Human), UniProt P01116+P62937, G12V); assay: KRAS-BRAF with CYPA (500 nM) interaction assay (TR-FRET), G12V; type: biochemical
Method in brief: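 A TR-FRET assay measured how compound, in the presence of CYPA, disrupts binding of GMPPNP-loaded 6His-KRAS G12V to BRAF. The buffer contained 25 mM HEPES PH=7.4, 0.002% Tween20, 0.1% BSA, 100 mM NaCl, 5 mM MgCl2 and 10 μM GMPPNP. Compounds ran as a 16-point 3-fold dilution series from 10 μM for 3 hours.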

[4] = tested on: phosphorylation of ERK, KRAS G12C in NCJ-H358 cells; assay: pERK inhibition assay, KRAS G12C; type: cell-based, human; conditions: Homo sapiens, 4 hours
Method in brief: (§2)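 Cells plated the day before (NCJ-H358 30,000, AGS 20,000, SW620 30,000 per well), then exposed to compound for 4 h at 0.5% DMSO final. Fixed, permeabilized, and phospho-ERK detected by in-cell ELISA (anti-pERK, HRP secondary, TMB, OD450); IC50 from 4-parameter sigmoidal fit.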

[5] = tested on: phosphorylation of ERK, KRAS G12D in AGS cells; assay: pERK inhibition assay, KRAS G12D; type: cell-based, human; conditions: Homo sapiens, 4 hours
Protocol: This assay is to measure the ability of test compounds in inhibiting the phosphorylation of ERK, the downstream signaling of KRAS G12C in NCJ-H358 cells, KRAS G12D in AGS cells, and KRAS G12V in SW620. NCJ-H358 (ATCC-CRL5807) cells, AGS (ATCC-CRL-1739) cells, SW620 (ATCC-CCL-227) cells were all grown and maintained using RPMI-1640 medium (Thermo Fisher Scientific) with 10% fetal bovine serum and 1% penicillin/streptomycin. On the day prior to compound addition, cells were plated in tissue culture-treated 96 well plates (Corning-3699) at a density of 30,000 cell/well, 20,000 cell/well, 30,000 cell/well for NCJ-H358, AGS and SW620 respectively, and allowed for attachment overnight. Diluted compounds were then added in a final concentration of 0.5% DMSO. After 4 hours of incubation, the medium was removed, 100 μL of 4% formaldehyde was added, and the assay plates were incubated at room temperature for 20 minutes. The plates were then washed once with phosphate buffered saline (PBS), and permeabilized with 100 μL of chilled methanol for 10 minutes. Non-specific antibody binding to the plates was blocked using 50 μL 1×BSA blocking buffer (Thermo-37520, 10-fold dilution by Phosphate-Buffered Saline Tween (PBST) for at least 1 hour at room temperature.
The amount of phosphor-ERK was determined using an antibody specific for phosphorylated form of ERK. Primary antibody (pERK, CST-4370, Cell Signaling Technology) was diluted 1:300 in blocking buffer, with 50 μL aliquoted to each well, and incubated overnight at 4′° C. Cells was washed five times for 5 minutes with PBST. Secondary antibody ([…] anti-rabbit IgG, CST-7074, Cell Signaling Technology) was diluted 1:1000 in blocking buffer, and 50 μL was added to each well and incubated 1-2 hrs at room temperature. Cells was washed 5 times for 5 minutes with PBST, 100 μL TMB ELISA substrate (abcam-ab171523) were added and gently shake for 20 minutes. 50 μL stop solution (abcam-ab171529) were added, and then read the signal (OD450) by EnVision.
IC50 was determined by fitting a 4-parameter sigmoidal concentration response model.

[6] = tested on: phosphorylation of ERK, KRAS G12V in SW620; assay: pERK inhibition assay, KRAS G12V; type: cell-based, human; conditions: Homo sapiens, SW-620, SW620, 4 hours
Method in brief: as §2

[7] = tested on: NCI-H358 (ATCC-CRL5807) cells; assay: Cell viability assay, G12C (NCI-H358); type: cell-based, human; conditions: Homo sapiens; KRAS cell viability, NCI-H358, 72 hrs, Cell Counting Kit-8
Protocol: The purpose of this cellular assay was to determine the effects of test compounds on the proliferation of human cancer cell lines NCI-H358 (ATCC-CRL5807) cells, AGS (ATCC-CRL-1739) cells, SW620 (ATCC-CCL-227) over a 3-day treatment period by quantifying the amount of NADPH present at endpoint using Cell Counting Kit-8.
Cells were seeded at 5,000 cells/well (NCI-H358), 2,000 cells/well (AGS) 2,000 cells/well (SW620) in 96-well assay plates (Corning-3699) and incubated overnight. On the day of the assay, diluted compounds were then added in a final concentration of 0.5% DMSO. After 72 hrs incubation, a tenth of the volume of cell counting kit 8 (Dnjindo-CK04) was added into each well. Read the signal (OD450 minus OD650) using EnVision after 2 hrs incubation. IC50 was determined by fitting a 4-parameter sigmoidal concentration response model.

Sequence of KRAS G12V binding to BRAF (P01116-2 other isoform, or with tags, fused parts or gaps G12V): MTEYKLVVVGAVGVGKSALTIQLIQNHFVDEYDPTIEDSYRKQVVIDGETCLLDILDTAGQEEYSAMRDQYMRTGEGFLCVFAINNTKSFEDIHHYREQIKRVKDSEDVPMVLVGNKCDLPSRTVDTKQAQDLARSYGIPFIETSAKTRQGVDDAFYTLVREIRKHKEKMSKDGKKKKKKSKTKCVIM
Sequence of KRAS G12V binding to BRAF (P62937 whole entry): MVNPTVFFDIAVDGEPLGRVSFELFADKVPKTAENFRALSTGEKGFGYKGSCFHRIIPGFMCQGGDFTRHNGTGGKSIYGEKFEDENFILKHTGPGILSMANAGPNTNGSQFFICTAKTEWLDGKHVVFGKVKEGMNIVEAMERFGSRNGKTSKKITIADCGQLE
Sequence of KRAS G12D binding to BRAF (P01116-2 other isoform, or with tags, fused parts or gaps G12D): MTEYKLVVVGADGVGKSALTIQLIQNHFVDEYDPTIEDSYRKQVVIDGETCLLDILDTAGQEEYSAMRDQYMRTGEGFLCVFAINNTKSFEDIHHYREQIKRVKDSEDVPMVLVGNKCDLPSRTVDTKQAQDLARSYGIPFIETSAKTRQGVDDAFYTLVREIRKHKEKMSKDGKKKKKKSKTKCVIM
Sequence of KRAS G12D binding to BRAF (P62937 whole entry): as the sequence (P62937 whole entry) above
Sequence of KRAS G12C-BRAF complex (P01116-2 other isoform, or with tags, fused parts or gaps G12C): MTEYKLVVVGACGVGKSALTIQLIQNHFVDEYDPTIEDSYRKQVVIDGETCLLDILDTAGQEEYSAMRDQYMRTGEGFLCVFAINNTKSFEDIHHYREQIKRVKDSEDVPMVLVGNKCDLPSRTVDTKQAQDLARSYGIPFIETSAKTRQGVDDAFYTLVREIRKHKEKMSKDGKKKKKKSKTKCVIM
Sequence of KRAS G12C-BRAF complex (P62937 whole entry): as the sequence (P62937 whole entry) above

SMILES	IC50 [1] [nM]	IC50 (SW620 (ATCC-CCL-227)) [nM]	IC50 (KRAS G12C-BRAF complex) [nM]	IC50 [2] [nM]	IC50 [3] [nM]	IC50 [4] [nM]	IC50 [5] [nM]	IC50 [6] [nM]	IC50 [7] [nM]
CO[C@@H](C)c1ncc(N2CCN(C)CC2)cc1-c1c2c3c(F)c(ccc3n1CC(F)(F)F)-c1cc(O)cc(c1)C[C@H](NC(=O)[C@H](C(C)C)N(C)C(=O)[C@H]1CCN(C(=O)[C@H](F)Cl)C1)C(=O)N1CCC[C@H](N1)C(=O)OCC(C)(C)C2 (atropisomer, axis not shown; (M)) [Example 27, (3S)-1-[(2R)-2-chloro-2-fluoro-acetyl]-N-[(1S)-1-[[(8S,14S)-26-fluoro-4-hydroxy-(21M)-21-[2-[(1S)-1-methoxyethyl]-5-(4-methylpiperazin-1-yl)-3-pyridyl]-18,18-dimethyl-9,15-dioxo-22-(2,2,2-trifluoroethyl)-16-oxa-10,22,28-triazapentacyclo[18.5.2.1^2,6.1^10,14.0^23,27]nonacosa-1(26),2,4,6(29),20,23(27),24-heptaen-8-yl]carbamoyl]-2-methyl-propyl]-N-methyl-pyrrolidine-3-carboxamide]	37	31	2	7	3	3	11	10	
CO[C@@H](C)c1ncc(N2CCOCC2)cc1-c1c2c3cc(c(F)cc3n1CC(F)(F)F)-c1csc(n1)C[C@H](NC(=O)[C@H](C(C)C)N(C)C(=O)[C@H]1CCN(C(=O)[C@H](F)Cl)C1)C(=O)N1CCC[C@H](N1)C(=O)OCC(C)(C)C2 (atropisomer, axis not shown; (M)) [Example 24, (3S)-1-[(2R)-2-chloro-2-fluoro-acetyl]-N-[(1S)-1-[[(7S,13S)-24-fluoro-(20M)-20-[2-[(1S)-1-methoxyethyl]-5-morpholino-3-pyridyl]-17,17-dimethyl-8,14-dioxo-21-(2,2,2-trifluoroethyl)-15-oxa-4-thia-9,21,27,28-tetrazapentacyclo[17.5.2.1^2,5.1^9,13.0^22,26]octacosa-1(25),2,5(28),19,22(26),23-hexaen-7-yl]carbamoyl]-2-methyl-propyl]-N-methyl-pyrrolidine-3-carboxamide]	283	34	53	> 10000	1390	5	12	18	
CCn1c(-c2cc(N3CCN(C)CC3)cnc2[C@H](C)OC)c2c3cc(c(F)cc31)-c1csc(n1)C[C@H](NC(=O)[C@H](C(C)C)N1CCCC3(CCN(C(=O)[C@H](F)Cl)CC3)C1=O)C(=O)N1CCC[C@H](N1)C(=O)OCC(C)(C)C2 (atropisomer, axis not shown; (M)) [Example 36, (2S)-2-[9-[(2R)-2-chloro-2-fluoro-acetyl]-1-oxo-2,9-diazaspiro[5.5]undecan-2-yl]-N-[(7S,13S)-21-ethyl-24-fluoro-(20M)-20-[2-[(1S)-1-methoxyethyl]-5-(4-methylpiperazin-1-yl)-3-pyridyl]-17,17-dimethyl-8,14-dioxo-15-oxa-4-thia-9,21,27,28-tetrazapentacyclo[17.5.2.1^2,5.1^9,13.0^22,26]octacosa-1(25),2,5(28),19,22(26),23-hexaen-7-yl]-3-methyl-butanamide]	30	132	38	3940	> 10000	3		13	< 1
CO[C@@H](C)c1ncc(N2CCN(C)CC2)cc1-c1c2c3cc(c(C)cc3n1CC(F)(F)F)-c1csc(n1)C[C@H](NC(=O)[C@H](C(C)C)N(C)C(=O)[C@H]1CCN(C(=O)[C@H](F)Cl)C1)C(=O)N1CCC[C@H](N1)C(=O)OCC(C)(C)C2 (atropisomer, axis not shown; (M)) [Example 3, (3S)-1-[(2R)-2-chloro-2-fluoro-acetyl]-N-[(1S)-1-[[(7S,13S)-(20M)-20-[2-[(1S)-1-methoxyethyl]-5-(4-methylpiperazin-1-yl)-3-pyridyl]-17,17,24-trimethyl-8,14-dioxo-21-(2,2,2-trifluoroethyl)-15-oxa-4-thia-9,21,27,28-tetrazapentacyclo[17.5.2.1^2,5.1^9,13.0^22,26]octacosa-1(25),2,5(28),19,22(26),23-hexaen-7-yl]carbamoyl]-2-methyl-propyl]-N-methyl-pyrrolidine-3-carboxamide]						32	114	138	
CO[C@@H](C)c1ncc(N2CCN(CC(F)(F)F)CC2)cc1-c1c2c3cc(c(F)cc3n1CC(F)(F)F)-c1csc(n1)C[C@H](NC(=O)[C@H](C(C)C)N1CCCC3(CCN(C(=O)[C@H](F)Cl)CC3)C1=O)C(=O)N1CCC[C@H](N1)C(=O)OCC(C)(C)C2 (atropisomer, axis not shown; (M)) [Example 42, (2S)-2-[9-[(2R)-2-chloro-2-fluoro-acetyl]-1-oxo-2,9-diazaspiro[5.5]undecan-2-yl]-N-[(7S,13S)-24-fluoro-(20M)-20-[2-[(1S)-1-methoxyethyl]-5-[4-(2,2,2-trifluoroethyl)piperazin-1-yl]-3-pyridyl]-17,17-dimethyl-8,14-dioxo-21-(2,2,2-trifluoroethyl)-15-oxa-4-thia-9,21,27,28-tetrazapentacyclo[17.5.2.1^2,5.1^9,13.0^22,26]octacosa-1(25),2,5(28),19,22(26),23-hexaen-7-yl]-3-methyl-butanamide]	44	82	73	3970	7860	3		24	< 1
CCn1c(-c2cc(N3CCN(C)CC3)cnc2[C@H](C)OC)c2c3cc(c(F)cc31)-c1csc(n1)C[C@H](NC(=O)[C@@H](COC1CN(C(=O)[C@H](F)Cl)C1)C(C)C)C(=O)N1CCC[C@H](N1)C(=O)OCC(C)(C)C2 (atropisomer, axis not shown; (M)) [Example 40, (2R)-2-[[1-[(2R)-2-chloro-2-fluoro-acetyl]azetidin-3-yl]oxymethyl]-N-[(7S,13S)-21-ethyl-24-fluoro-(20M)-20-[2-[(1S)-1-methoxyethyl]-5-(4-methylpiperazin-1-yl)-3-pyridyl]-17,17-dimethyl-8,14-dioxo-15-oxa-4-thia-9,21,27,28-tetrazapentacyclo[17.5.2.1^2,5.1^9,13.0^22,26]octacosa-1(25),2,5(28),19,22(26),23-hexaen-7-yl]-3-methyl-butanamide]	1110	63	108	> 10000	> 10000	10		23	< 1

From patent US20250206761A1, “HALOINDOLE MACROCYCLIC COMPOUNDS FOR THE TREATMENT OF CANCER” (Hoffmann-La Roche Inc., priority 2022, published 2025)
